Legend:
[1] = taken orally; cited from earlier work
skeletal muscle spasm = conditions: after application
Excerpt: Cyclobenzaprine is a 5-HT2 receptor antagonist and its muscle relaxant effect is due to inhibition of serotonergic neurons.

[2] = taken orally; cited from earlier work; remark: listed apart in the source

Structure (SMILES): CN(C)CCC=C1c2ccccc2C=Cc2ccccc21 [cyclobenzaprine]
- binding to plasma proteins [1]: highly bound to plasma proteins
- time to clinical improvement (local pain and tenderness, range of motion) (skeletal muscle spasm): ≤ 20 min
- half life [2]: one to three

— patent publication US7456223B2, “Treatment of bruxism” (priority 2004, dated 2008)
